Columns and labels:
GRXC2 = GRXC2 (Arabidopsis thaliana, UniProt Q9FNE2); assay: GSH-disulfide transhydrogenase assay coupled to glutathione reductase, NADPH at […] nm; format: biochemical; conditions: 0.7 mM HED, 1 mM GSH, 0.2 mM NADPH, pH 8.0, 30°C
GRXC1 = GRXC1 (Arabidopsis thaliana, UniProt Q8L8T2); assay: as above; format: biochemical; conditions: 0.7 mM HED, 1 mM GSH, 0.2 mM NADPH, pH 8.0, 30°C
Sequence of GRXC1 (Q8L8T2 whole entry): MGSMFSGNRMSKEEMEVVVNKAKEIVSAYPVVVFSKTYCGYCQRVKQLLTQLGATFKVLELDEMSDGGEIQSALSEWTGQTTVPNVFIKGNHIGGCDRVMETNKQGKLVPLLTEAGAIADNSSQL

Sequence of GRXC2 (Q9FNE2 whole entry): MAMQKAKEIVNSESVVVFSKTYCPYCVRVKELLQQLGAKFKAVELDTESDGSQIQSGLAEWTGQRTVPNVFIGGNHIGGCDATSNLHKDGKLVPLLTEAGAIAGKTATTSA

OCCSSCCO [HED]
GSH-disulfide transhydrogenase assay coupled to glutathione reductase, NADPH at (GRXC2): specific activities of recombinant GRXs were measured using the artificial substrate HED | GSH-disulfide transhydrogenase assay coupled to glutathione reductase, NADPH at (GRXC1): specific activities of recombinant GRXs were measured using the artificial substrate HED

From publication PMC5177656, “Cytosolic Triosephosphate Isomerase from Arabidopsis thaliana Is Reversibly Modified by Glutathione on Cysteines 127 and 218” (Frontiers in Plant Science, 2016)
